Laboratory results as given in PubChem BioAssay (NCI).
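Tested at 5 concentrations; 48 h exposure; 96-well plates; endpoints linearly interpolated, else capped at highest concentration. TGI denotes the concentration required for complete inhibition of growth.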

What was measured:
Test in all cases: NCI tumour cell line growth inhibition, 48 h
SR leukemia = system: SR leukemia
LOX IMVI melanoma = system: LOX IMVI melanoma
HS 578T breast = system: HS 578T breast
HL-60(TB) leukemia = system: HL-60(TB) leukemia
M14 melanoma = system: M14 melanoma
MDA-MB-231 breast = system: MDA-MB-231 breast
MCF7 breast = system: MCF7 breast
SK-MEL-28 melanoma = system: SK-MEL-28 melanoma
UACC-62 melanoma = system: UACC-62 melanoma
SF-539 CNS = system: SF-539 CNS
BT-549 breast = system: BT-549 breast
OVCAR-5 ovarian = system: OVCAR-5 ovarian
A549 NSCLC = system: A549 NSCLC
NCI-H226 lung = system: NCI-H226 lung
T-47D breast = system: T-47D breast
COLO 205 colon = system: COLO 205 colon
MDA-N = system: MDA-N
CCRF-CEM leukemia = system: CCRF-CEM leukemia
MDA-MB-435 = system: MDA-MB-435
RPMI-8226 leukemia = system: RPMI-8226 leukemia
HCT-116 colon = system: HCT-116 colon
KM12 colon = system: KM12 colon
SNB-75 CNS = system: SNB-75 CNS
UO-31 renal = system: UO-31 renal
HCC-2998 colon = system: HCC-2998 colon
SK-OV-3 ovarian = system: SK-OV-3 ovarian
SW-620 colon = system: SW-620 colon
RXF 393 renal = system: RXF 393 renal
NCI/ADR-RES ovarian = system: NCI/ADR-RES ovarian
SF-268 CNS = system: SF-268 CNS
EKVX NSCLC = system: EKVX NSCLC
U251 CNS = system: U251 CNS
OVCAR-3 ovarian = system: OVCAR-3 ovarian
NCI-H522 lung = system: NCI-H522 lung
CAKI-1 renal = system: CAKI-1 renal
OVCAR-4 ovarian = system: OVCAR-4 ovarian
SK-MEL-2 melanoma = system: SK-MEL-2 melanoma
SK-MEL-5 melanoma = system: SK-MEL-5 melanoma
MOLT-4 leukemia = system: MOLT-4 leukemia
IGROV1 ovarian = system: IGROV1 ovarian
K-562 leukemia = system: K-562 leukemia
HT29 colon = system: HT29 colon
HCT-15 colon = system: HCT-15 colon
NCI-H23 lung = system: NCI-H23 lung
HOP-62 NSCLC = system: HOP-62 NSCLC
OVCAR-8 ovarian = system: OVCAR-8 ovarian
NCI-H460 lung = system: NCI-H460 lung
UACC-257 melanoma = system: UACC-257 melanoma
SF-295 CNS = system: SF-295 CNS
786-0 renal = system: 786-0 renal
ACHN renal = system: ACHN renal
HOP-92 NSCLC = system: HOP-92 NSCLC
DU-145 prostate = system: DU-145 prostate
MALME-3M melanoma = system: MALME-3M melanoma
SNB-19 CNS = system: SNB-19 CNS
PC-3 prostate = system: PC-3 prostate
TK-10 renal = system: TK-10 renal
A498 renal = system: A498 renal
SN12C renal = system: SN12C renal

Structure (SMILES): O=[N+]([O-])C(C(Cl)=C(Cl)Cl)=C(n1nnc2ccccc21)n1nnc2ccccc21
- TGI (SR leukemia): 17.4 µM
- TGI (LOX IMVI melanoma): > 66.3 µM
- TGI (HS 578T breast): 85.6 µM
- TGI (HL-60(TB) leukemia): 13.5 µM
- TGI (M14 melanoma): 50.8 µM
- TGI (MDA-MB-231 breast): 38.5 µM
- TGI (MCF7 breast): > 55.4 µM
- TGI (SK-MEL-28 melanoma): 64.9 µM
- TGI (UACC-62 melanoma): > 58.2 µM
- TGI (SF-539 CNS): 53.3 µM
- TGI (BT-549 breast): 99.6 µM
- TGI (OVCAR-5 ovarian): > 66.3 µM
- TGI (A549 NSCLC): > 72.4 µM
- TGI (NCI-H226 lung): > 73.9 µM
- TGI (T-47D breast): > 80.6 µM
- TGI (COLO 205 colon): 51.9 µM
- TGI (MDA-N): 61.2 µM
- TGI (CCRF-CEM leukemia): 43.9 µM
- TGI (MDA-MB-435): 58.4 µM
- TGI (RPMI-8226 leukemia): 56.4 µM
- TGI (HCT-116 colon): 50.2 µM
- TGI (KM12 colon): > 70.1 µM
- TGI (SNB-75 CNS): > 58.1 µM
- TGI (UO-31 renal): 52.6 µM
- TGI (HCC-2998 colon): > 67.1 µM
- TGI (SK-OV-3 ovarian): > 58 µM
- TGI (SW-620 colon): 16.6 µM
- TGI (RXF 393 renal): 50 µM
- TGI (NCI/ADR-RES ovarian): 55.9 µM
- TGI (SF-268 CNS): 70 µM
- TGI (EKVX NSCLC): > 74.6 µM
- TGI (U251 CNS): 62.8 µM
- TGI (OVCAR-3 ovarian): 62.4 µM
- TGI (NCI-H522 lung): 38.6 µM
- TGI (CAKI-1 renal): > 54.1 µM
- TGI (OVCAR-4 ovarian): 66.3 µM
- TGI (SK-MEL-2 melanoma): > 65.3 µM
- TGI (SK-MEL-5 melanoma): > 67.8 µM
- TGI (MOLT-4 leukemia): 26.2 µM
- TGI (IGROV1 ovarian): 60.4 µM
- TGI (K-562 leukemia): 30.6 µM
- TGI (HT29 colon): 59.6 µM
- TGI (HCT-15 colon): 61.7 µM
- TGI (NCI-H23 lung): > 75.5 µM
- TGI (HOP-62 NSCLC): > 68.4 µM
- TGI (OVCAR-8 ovarian): 48.8 µM
- TGI (NCI-H460 lung): > 68.8 µM
- TGI (UACC-257 melanoma): > 68.1 µM
- TGI (SF-295 CNS): > 67.9 µM
- TGI (786-0 renal): 20.4 µM
- TGI (ACHN renal): > 65.8 µM
- TGI (HOP-92 NSCLC): > 81.6 µM
- TGI (DU-145 prostate): > 100 µM
- TGI (MALME-3M melanoma): 49 µM
- TGI (SNB-19 CNS): > 100 µM
- TGI (PC-3 prostate): > 67.3 µM
- TGI (TK-10 renal): > 63.7 µM
- TGI (A498 renal): > 90 µM
- TGI (SN12C renal): 56.7 µM
